Results: patent publication US10202658B2, “Methods for determining hypersusceptibility of HIV-1 to non-nucleoside reverse transcriptase inhibitors” (Monogram Biosciences, Inc., priority 2005, dated 2019)

System: HIV-1 clinical isolates grouped by RT mutations
Assay: Pairwise comparison of NNRTI fold change between groups of clinical isolates (Student's T-test, Bonferroni's Multiple Comparison Test)
Assay type: cell-based
Method: This example provides methods and compositions for identifying mutations that correlate with hypersusceptibility to a NNRTI. Resistance test vectors were constructed and used as described in Example 1. Resistance test vectors derived from patient samples or clones derived from the resistance test vector pools were tested in a resistance assay to determine accurately and quantitatively the relative EFV, DLV, or NVP resistance or susceptibility compared to the median observed resistance or susceptibility.
To identify mutations associated with NNRTI hypersusceptibility, the following analysis was performed. […] The TAMs referenced in. Table 1 include M41L, D67N, K70R, L210W, T215FY, and K219X, while the NAMs referenced include K65R, T69X, L74IV, V75X, and M184IV. Isolates without NRTI, NNRTI or PI mutations served as a wild type (WT) reference group. Further comparison groups comprised isolates with three TAMS including T215Y (+/−H208Y, +/−V118I) or three TAMS including K70R. Scatter plots and statistical tests (See FIGS. 1-6) were generated using Prism 4.0 (GraphPad, San Diego, Calif.)
In addition, a pairwise comparison between two sets of data was conducted using Bonferroni's Multiple Comparison Test using the Prism 4.0 software. The results of the comparison are presented in Tables 2, 3, and 4, appended to the end of this document. Samples with K65R, K65R+M184V, or 2 TAMs in combination with T215Y had over 40% with EFV FC<0.4.

SMILES: Cc1ccnc2c1NC(=O)c1cccnc1N2C1CC1 [NVP, nevirapine]
- Mean Diff. of fold change (1 NAM vs 2 NAMs): 0.2694
- Mean Diff. of fold change (1 NAM vs 3 NAMs): 0.221
- Mean Diff. of fold change (1 NAM vs K65R): 0.3361
- Mean Diff. of fold change (1 NAM vs K65R + M184V): 0.3786
- Mean Diff. of fold change (1 NAM vs K70R_3_TAMs): 0.08835
- Mean Diff. of fold change (1 NAM vs M184V): −0.01357
- Mean Diff. of fold change (1 NAM vs T69): −0.03843
- Mean Diff. of fold change (1 NAM vs T215Y_3_TAMs): 0.211
- Mean Diff. of fold change (1 NAM vs T215Y_3_TAMs_118): 0.2013
- Mean Diff. of fold change (1 NAM vs T215Y_3_TAMs_208): 0.2552
- Mean Diff. of fold change (1 NAM vs T215Y_3_TAMs_no118): 0.2175
- Mean Diff. of fold change (1 NAM vs T215Y_3_TAMs_no208): 0.204
- Mean Diff. of fold change (2 NAMs vs 3 NAMs): −0.04846
- Mean Diff. of fold change (2 NAMs vs K65R): 0.06669
- Mean Diff. of fold change (2 NAMs vs K65R + M184V): 0.1092
- Mean Diff. of fold change (2 NAMs vs K70R_3_TAMs): −0.1811
- Mean Diff. of fold change (2 NAMs vs M184V): −0.283
- Mean Diff. of fold change (2 NAMs vs T69): −0.3079
- Mean Diff. of fold change (2 NAMs vs T215Y_3_TAMs): −0.05842
- Mean Diff. of fold change (2 NAMs vs T215Y_3_TAMs_118): −0.06817
- Mean Diff. of fold change (2 NAMs vs T215Y_3_TAMs_208): −0.01419
- Mean Diff. of fold change (2 NAMs vs T215Y_3_TAMs_no118): −0.05192
- Mean Diff. of fold change (2 NAMs vs T215Y_3_TAMs_no208): −0.06547
- Mean Diff. of fold change (3 NAMs vs K65R): 0.1151
- Mean Diff. of fold change (3 NAMs vs K65R + M184V): 0.1577
- Mean Diff. of fold change (3 NAMs vs K70R_3_TAMs): −0.1326
- Mean Diff. of fold change (3 NAMs vs M184V): −0.2345
- Mean Diff. of fold change (3 NAMs vs T69): −0.2594
- Mean Diff. of fold change (3 NAMs vs T215Y_3_TAMs): −0.009962
- Mean Diff. of fold change (3 NAMs vs T215Y_3_TAMs_118): −0.01971
- Mean Diff. of fold change (3 NAMs vs T215Y_3_TAMs_208): 0.03427
- Mean Diff. of fold change (3 NAMs vs T215Y_3_TAMs_no118): −0.003462
- Mean Diff. of fold change (3 NAMs vs T215Y_3_TAMs_no208): −0.01701
- Mean Diff. of fold change (K65R + M184V vs K70R_3_TAMs): −0.2903
- Mean Diff. of fold change (K65R + M184V vs T215Y_3_TAMs): −0.1676
- Mean Diff. of fold change (K65R + M184V vs T215Y_3_TAMs_118): −0.1774
- Mean Diff. of fold change (K65R + M184V vs T215Y_3_TAMs_208): −0.1234
- Mean Diff. of fold change (K65R + M184V vs T215Y_3_TAMs_no118): −0.1611
- Mean Diff. of fold change (K65R + M184V vs T215Y_3_TAMs_no208): −0.1747
- Mean Diff. of fold change (K65R vs K65R + M184V): 0.04252
- Mean Diff. of fold change (K65R vs K70R_3_TAMs): −0.2478
- Mean Diff. of fold change (K65R vs M184V): −0.3497
- Mean Diff. of fold change (K65R vs T69): −0.3746
- Mean Diff. of fold change (K65R vs T215Y_3_TAMs): −0.1251
- Mean Diff. of fold change (K65R vs T215Y_3_TAMs_118): −0.1349
- Mean Diff. of fold change (K65R vs T215Y_3_TAMs_208): −0.08088
- Mean Diff. of fold change (K65R vs T215Y_3_TAMs_no118): −0.1186
- Mean Diff. of fold change (K65R vs T215Y_3_TAMs_no208): −0.1322
- Mean Diff. of fold change (K70R_3_TAMs vs T215Y_3_TAMs_118): 0.1129
- Mean Diff. of fold change (K70R_3_TAMs vs T215Y_3_TAMs_no118): 0.1292
- Mean Diff. of fold change (M184V vs K65R + M184V): 0.3922
- Mean Diff. of fold change (M184V vs K70R_3_TAMs): 0.1019
- Mean Diff. of fold change (M184V vs T69): −0.02486
- Mean Diff. of fold change (M184V vs T215Y_3_TAMs): 0.2246
- Mean Diff. of fold change (M184V vs T215Y_3_TAMs_118): 0.2148
- Mean Diff. of fold change (M184V vs T215Y_3_TAMs_208): 0.2688
- Mean Diff. of fold change (M184V vs T215Y_3_TAMs_no118): 0.2311
- Mean Diff. of fold change (M184V vs T215Y_3_TAMs_no208): 0.2175
- Mean Diff. of fold change (T69 vs K65R + M184V): 0.4171
- Mean Diff. of fold change (T69 vs K70R_3_TAMs): 0.1268
- Mean Diff. of fold change (T69 vs T215Y_3_TAMs): 0.2494
- Mean Diff. of fold change (T69 vs T215Y_3_TAMs_118): 0.2397
- Mean Diff. of fold change (T69 vs T215Y_3_TAMs_208): 0.2937
- Mean Diff. of fold change (T69 vs T215Y_3_TAMs_no118): 0.2559
- Mean Diff. of fold change (T69 vs T215Y_3_TAMs_no208): 0.2424
- Mean Diff. of fold change (T215Y_3_TAMs vs K70R_3_TAMs): −0.1227
- Mean Diff. of fold change (T215Y_3_TAMs vs T215Y_3_TAMs_118): −0.00975
- Mean Diff. of fold change (T215Y_3_TAMs vs T215Y_3_TAMs_208): 0.04423
- Mean Diff. of fold change (T215Y_3_TAMs vs T215Y_3_TAMs_no118): 0.0065
- Mean Diff. of fold change (T215Y_3_TAMs vs T215Y_3_TAMs_no208): −0.007051
- Mean Diff. of fold change (T215Y_3_TAMs_208 vs K70R_3_TAMs): −0.1669
- Mean Diff. of fold change (T215Y_3_TAMs_208 vs T215Y_3_TAMs_118): −0.05398
- Mean Diff. of fold change (T215Y_3_TAMs_208 vs T215Y_3_TAMs_no118): −0.03773
- Mean Diff. of fold change (T215Y_3_TAMs_208 vs T215Y_3_TAMs_no208): −0.05128
- Mean Diff. of fold change (T215Y_3_TAMs_no118 vs T215Y_3_TAMs_118): −0.01625
- Mean Diff. of fold change (T215Y_3_TAMs_no208 vs K70R_3_TAMs): −0.1156
- Mean Diff. of fold change (T215Y_3_TAMs_no208 vs T215Y_3_TAMs_118): −0.002699
- Mean Diff. of fold change (T215Y_3_TAMs_no208 vs T215Y_3_TAMs_no118): 0.01355
- mean fold change (FC) compared to the WT population (all groups containing NAMs or the combination of TAMs shown in Table 1, p<0.0001, Student's T-test): significantly lower
- Mean Diff. of fold change (wt vs 1 NAM): 0.1982
- Mean Diff. of fold change (wt vs 2 NAMs): 0.4677
- Mean Diff. of fold change (wt vs 3 NAMs): 0.4192
- Mean Diff. of fold change (wt vs K65R): 0.5344
- Mean Diff. of fold change (wt vs K65R + M184V): 0.5769
- Mean Diff. of fold change (wt vs K70R_3_TAMs): 0.2866
- Mean Diff. of fold change (wt vs M184V): 0.1847
- Mean Diff. of fold change (wt vs T69): 0.1598
- Mean Diff. of fold change (wt vs T215Y_3_TAMs): 0.4092
- Mean Diff. of fold change (wt vs T215Y_3_TAMs_118): 0.3995
- Mean Diff. of fold change (wt vs T215Y_3_TAMs_208): 0.4535
- Mean Diff. of fold change (wt vs T215Y_3_TAMs_no118): 0.4157
- Mean Diff. of fold change (wt vs T215Y_3_TAMs_no208): 0.4022
